Laboratory results reported in US20030077740A1, “Presenilin/Crk binding polypeptides (PCBP) and methods of use thereof” (priority 2001, published 2003).

What was measured:
B103 (APP695) cells = assay: APP secretion by transfected B103 (APP695) cells, Western blotting; type: cell-based, rat
HEK293 cells = assay: secretion of endogenous APP751 by HEK293 cells; type: cell-based; details: HEK293 cells expressing PBP
Procedure: Western blotting, metabolic labeling and immunoprecipitation: For western blotting, cells were washed twice with ice-cold PBS and lysed in lysis buffer (1% Triton, 50 mM Hepes pH 7.5, 50 mM NaCl, 5 mM EDTA, 1 mM Na3VO4, 50 mM NaF, 10 mM Na4P2O7, plus a mixture of protease inhibitors (Complete Mini; Roche, Ind., USA). Protein concentrations were determined by Coomassie Plus (Pierce; IL, USA). The same amount of protein from each sample was separated on Novex pre-cast polyacrylamide gels (Invitrogen; CA, USA), and transferred to Immobulin membranes (Millipore; MA, USA). The membranes were blocked with 5% non-fat milk in Tris-buffered saline for 1 hour at room temperature. Following overnight incubation at 4° C. with primary antibodies, the antigens are detected with horseradish peroxidase-conjugated secondary antibodies (Bio-Rad; CA, USA; 1:20,000), an ECL kit (Amersham; NJ, USA), and exposed to films. For pulse-chase experiments, cells were grown to 80% confluency and incubated in methionine-free DMEM for 90 min. […] Protein concentrations were determined and the same amounts of proteins were immunoprecipitated with antibodies at 4° C. overnight 25 μl of anti-mouse IgG agarose (Roche) was then added to each sample and incubated at 4° C. for 2 hours on a rocker platform. […] The gels were dried and subjected to autoradiography and quantitated by NIH image. […]

[1] = test system: Ca2+-activated Cl- current; assay: Ca2+-activated Cl- current induced by serum in Xenopus oocytes; type: cell-based
Description: Xenopus oocytes contain a plasma membrane CF channel which is activated by increases in intracellular Ca^2+, and intracellular Ca^2+ release is activated exclusively by inositol 1,4,5-triphosphate (IP3) Miledi & Parker, J. Physiol., 415:189-210 (1989)). Lysophosphatidic acid (LPA) increases the Ca^2+-activated Cl^− current in oocytes expressing PS1 relative to control oocytes (Leissring et al. (1999)). Since PBP can associate with PS1, the effect of the interaction of PBP with PS1 on the activation of Ca^2+-activated Cl^− current induced by serum (Miledi & Parker (1989)) was examined with Xenopus oocytes. […] Injection of cRNAs into Xenopus oocytes and the electrophysiological recordings were done as described previously (Kimura & Schubert, Proc. Natl. Acad. Sci. (USA), 90:7508-7512 (1993)).

Crk = biological target: T1, Crk (Homo sapiens, UniProt P46108); assay: co-immunoprecipitation with Crk in 293T cells; type: binding; details: anti-PBP-TAG immunoprecipitation, Western blot with antibody against Crk
T1 construct: expressed in transfected cells; host or cells: 293T cells
Procedure: Since PBP has two consensus sequences for Crk binding, the interaction between PBP and Crk was also examined. The expression plasmid containing PBP cDNA attached to TAG and a plasmid containing Crk cDNA were co-transfected into 293T cells. Forty-eight hrs later, cells were lysed and proteins immunoprecipitated with anti-PBP-TAG and run on SDS acrylamide gels.
For immunoprecipitation of the large hydrophilic loop of PSs or Crk with PBP, cells were lysed in RIPA buffer (100 mM NaCl, 0.5% NP-40, 0.5% DOC, 0.1% SDS, 50 mM Tris, pH 7.5, 1 mM PMSF and 1 μg/ml aprotinin, 1 μg/l leupeptin) on ice for 30 min. For immunoprecipitation of full length PS1 with PBP, RIPA buffer with 1% NP40 but without DOC and SDS was used. Cell lysates were spun for 10 min at 10,000 g. The resulting supernatants were preadsorbed with anti-mouse IgG-agarose (Sigma) for 4 hours at 4° C. After centrifugation, antibody 12CA5 and anti-mouse IgG-agarose were added at 4° C. overnight. After incubation with anti-mouse IgG-agarose, immunoprecipitates were subjected to SDS-polyacrylamide gel electrophoresis and transferred to Immobilon (Millipore, Bedford, Mass.). Western blot analysis with anti-FLAG and 12CA5 monoclonal antibodies or an antibody against Crk was then performed. The bound antibodies were detected by the ECL-plus chemiluminescence system (Amersham, Arlington Heights, Ill.).

PS1 = biological target: T2, PS1 (Homo sapiens, UniProt P49768, L392V); assay: yeast two-hybrid interaction with PS1; type: binding; details: yeast two-hybrid system
T2 construct: the large hydrophilic loop region of PS1 (amino acids 1-81, 429-468, 263-407, respectively) were inserted into the pGBT9 vector; expressed in transfected cells; host or cells: yeast Y190

T1 sequence (P46108 whole entry, species assumed): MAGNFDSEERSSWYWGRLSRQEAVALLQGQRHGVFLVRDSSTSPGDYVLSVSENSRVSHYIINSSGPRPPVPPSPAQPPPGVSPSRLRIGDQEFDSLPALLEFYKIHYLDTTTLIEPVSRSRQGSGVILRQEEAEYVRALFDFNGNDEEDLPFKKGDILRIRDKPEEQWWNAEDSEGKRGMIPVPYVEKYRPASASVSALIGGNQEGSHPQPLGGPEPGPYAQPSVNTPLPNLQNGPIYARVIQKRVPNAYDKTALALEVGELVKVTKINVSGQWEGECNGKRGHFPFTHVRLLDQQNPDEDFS

PBP: novel 2027 amino acid protein, 233 kD, binds presenilins and Crk; expressed from cDNA in cells (KYGVVICSFRGSVPQGLVLEIGETVQILEKCEGWYRGVSTKKPNVKGLFPANYIHLK; listed as Mus musculus)
abundance of APP mRNAs (B103 (APP695) cells; RT-PCR): not altered | secretion of sAPPβ (B103 (APP695) cells; antibodies 22C11, GID and 6E10, vs cells without PBP): Less secretion | sAPPα secretion (B103 (APP695) cells; co-expression with WT PS1 or FAD PS1 (L392V), relative to PBP alone): further reduced | secretion of β-laminin (B103 (APP695) cells; specificity control): no effect | secretion of sAPPα (B103 (APP695) cells; stable clones vs empty vector, antibody 6E10): dramatically decreased | APP secretion (B103 (APP695) cells; transient transfection, uncloned population): reduction | secretion of endogenous APP751 (HEK293 cells): reduced | Ca2+-activated Cl- current ([1]; PBP alone expressed): slightly decreases | Cl- current ([1]; PS1-loop mutation L392V in the presence of PBP): does not suppress | Ca2+-activated Cl- current ([1]; co-expression with PS1, P<0.05 PS1 vs PS1+PBP): significantly suppresses | co-precipitation with Crk (Crk): co-precipitates | productive interaction with FAD mutant of PS1 (L392V) (PS1): productive interactions did not occur
